Experimental data: paper PMC8036666, “Biological and Physico-Chemical Characteristics of Arginine-Rich Peptide Gemini Surfactants with Lysine and Cystine Spacers” (International Journal of Molecular Sciences, 2021)
≈ marks a conversion by molar mass, not a printed value. Where “and” joins values, the source holds several entries; their conditions need not be identical. Identical values can stand only once. Where a SMILES comes first, the peptide text is derived from it. Bridges are numbered along the chain shown (N, C = ends). Roman numbers before positions name the chains, in order. Side-chain parts run from the residue outwards. [ ]: non-standard residue; d: D form. The star is where a group is joined. Myristoyl = CCCCCCCCCCCCCC(=O)*; Lauroyl = CCCCCCCCCCCC(=O)*; Nle = CCCC[C@H](N)C(=O)O; Octanoyl = CCCCCCCC(=O)*

Tests used:
[1] = Critical aggregation concentration by surface tension (Du Noüy ring, K100 tensiometer); format: physicochemical; conditions: unbuffered aqueous solution, 298 K
Description: The identity of the purified peptides was confirmed with electrospray ionization mass spectrometry (ESI-MS) in positive ion mode. Results of MS analyses and net charge are attached in Supplementary Materials (Table S1). Peptides’ hydrophobicity was evaluated by analytical reversed-phase high-performance liquid chromatography (RP-HPLC). The critical aggregation concentrations (CACs) of the lipopeptides were determined in unbuffered aqueous solution at 298 K by measuring the surface tension as a function of lipopeptide concentration. The measurements were carried out by the Du Noüy ring method on a K100 tensiometer. The surface tension data were plotted against the logarithm of lipopeptide concentration. CAC was found as the intersection of two lines being linear regression of data below and above CAC.
The critical aggregation concentration (CAC) values were determined fully automatically using a K100 tensiometer (KRUSS, Hamburg, Germany) equipped with two micro dosimeters by measuring the surface tension vs. lipopeptide concentration. The measurements were performed in unbuffered aqueous solution at 298 K using the Du Noüy ring method. The accuracy of the surface tension measurements was 0.1 mN/m. The critical aggregation concentration (CAC) was defined as the intersection of two lines fitted to the experimental data collected before and after the inflection point.

HaCaT cells = format: cell-based, human; conditions: 24 h
Description: Cells were trypsinized, and the medium was renewed 2–3 times per week. The cytotoxicity of compounds was assessed by the determination of cell metabolic activity by colorimetric CellTilter 96® Aqueous One Solution Cell Proliferation Assay (Promega, Madison, WI, USA), according to the manufacturer’s instructions. […] Every compound was medium-soluble in 37 °C; thus, the control cells were cultured with the medium. Serial dilutions of the tested compounds were always prepared prior to use. Cells were incubated with drugs for 24 h, and then, 20 μL of the CellTiter 96®AqueousOne Solution Reagent was added to each well containing cells maintained in 100 μL of culture medium.

[2] = test system: Staphylococcus aureus ATCC 33591; conditions: ATCC 33591, 24 h
Description: The Acinetobacter baumannii ATCC BAA-1605, Enterococcus faecium ATCC 700221, Escherichia coli ML-35 ATCC 43827, Klebsiella aerogenes ATCC 13048, Klebsiella pneumoniae ATCC 700603, Pseudomonas aeruginosa ATCC 9027, Staphylococcus aureus ATCC 25923, Staphylococcus aureus ATCC 33591, Candida albicans ATCC 10231, Candida glabrata ATCC 15126, strains were acquired from the American Type Culture Collection (ATCC). All the strains were stored at −80 °C in Roti-Store cryo vials and before the tests were transferred into fresh Mueller–Hinton broth (MHB, Biocorp, Warsaw, […], Steinheim, Germany) for fungi and incubated for 24 h at 37 °C. Then, the cultures were seeded on the Mueller–Hinton agar (BioMaxima, Lublin, Poland) or Sabouraud dextrose agar (SDA, BioMaxima, Lublin, Poland) plates, respectively, and incubated as just mentioned. These agar cultures were used for further microbiological assays. […]
The MICs were determined by the broth microdilution method according to the Clinical and Laboratory Standard Institute guidelines. […] The experiments were conducted on 96-well microtiter polystyrene plates (Kartell, Noviglio, Italy). The growth was assessed visually after incubation, and the MIC was assumed as the lowest peptide concentration at which a noticeable growth of microorganisms was inhibited. All experiments were conducted in triplicate.

C. albicans ATCC 10231 = conditions: ATCC 10231, 24 h
Description: (§1) The Acinetobacter baumannii ATCC BAA-1605, Enterococcus faecium ATCC 700221, Escherichia coli ML-35 ATCC 43827, Klebsiella aerogenes ATCC 13048, Klebsiella pneumoniae ATCC 700603, Pseudomonas aeruginosa ATCC 9027, Staphylococcus aureus ATCC 25923, Staphylococcus aureus ATCC 33591, Candida albicans ATCC 10231, Candida glabrata ATCC 15126, strains were acquired from the American Type Culture Collection (ATCC). All the strains were stored at −80 °C in Roti-Store cryo vials and before the tests were transferred into fresh Mueller–Hinton broth (MHB, Biocorp, Warsaw, Poland) for bacteria or RPMI-1640 (Sigma-Aldrich, Steinheim, Germany) for fungi and incubated for 24 h at 37 °C. Then, the cultures were seeded on the Mueller–Hinton agar (BioMaxima, Lublin, Poland) or Sabouraud dextrose agar (SDA, BioMaxima, Lublin, Poland) plates, respectively, and incubated as just mentioned. These agar cultures were used for further microbiological assays. Cell densities for all assays were adjusted spectrophotometrically (Multiskan GO Microplate Spectrophotometer, Thermo Fisher Scientific, Vantaa, Finland) at 600 and 530 nm for bacteria and fungi, respectively.
(§2) The MICs were determined by the broth microdilution method according to the Clinical and Laboratory Standard Institute guidelines. For this purpose, initial inoculums of bacteria (5 × 10^5 CFU/mL) in MHB and yeasts (2 × 10^3 CFU/mL) in RPMI-1640 with 2% D-glucose were exposed to the ranging concentration of lipopeptides (0.5–256 μg/mL) and incubated at 37 °C for 18 h and 24 h, respectively. The experiments were conducted on 96-well microtiter polystyrene plates (Kartell, Noviglio, Italy). The growth was assessed visually after incubation, and the MIC was assumed as the lowest peptide concentration at which a noticeable growth of microorganisms was inhibited. All experiments were conducted in triplicate.

C. glabrata ATCC 15126 = conditions: ATCC 15126, 24 h
Description: as §1, §2

[3] = test system: human red blood cells (hRBCs); experiment: Hemolysis assay; format: cell-based; conditions: red cells of human, 1 h
Description: The hemolysis assay was performed by using the method reported previously. Fresh human red blood cells (hRBCs) with anticoagulant (EDTA) were rinsed three times with a PBS by centrifugation at 800× g for 10 min and diluted with PBS. The compounds were serially diluted on a 96-well microtiter polystyrene plate, and hRBCs were added up to a final volume of 100 μL. The compound concentration ranged between 0.5 and 256 μg/mL and the final hRBCs concentration was 4% (v/v). Controls for zero (blank) and 100% hemolysis consisted of hRBCs suspended in PBS and 1% of Triton-X 100 (Carl Roth GmbH, Karlsruhe, Germany), respectively. The plate was incubated for 1 h at 37 °C and then centrifuged (800× g, 10 min, 4 °C). Subsequently, the supernatant was […] to new microtiter plates, and the absorbance at 540 nm was measured (Multiskan GO Microplate Spectrophotometer, Thermo Fisher Scientific, Vantaa, Finland). All experiments were conducted in triplicate. HC50 was calculated using an ic50.tk tool. The protocol of the study was approved by the local Bioethics Committee at the Medical University of Gdańsk (NKBBN/262/2019, approval date: 10 June 2019).

Compound | CAC [1] | Surface Tension at CAC [1] [mN/m] | IC50 (HaCaT cells) [µg/mL] | MIC Staphylococcus aureus ATCC 33591 [2] [µg/mL] | MIC C. albicans ATCC 10231 (C. albicans ATCC 10231) [µg/mL] | MIC C. glabrata ATCC 15126 (C. glabrata ATCC 15126) [µg/mL] | HC50 [3] [µg/mL]
CCCCCCCCCCCCCC(=O)N[C@@H](CCCNC(=N)N)C(=O)N[C@@H](CCCNC(=N)N)C(N)=O [Compound A4, C14-RR-NH2] (Myristoyl-Arg-Arg-NH2) | 1.67 mM and 899.7 μg/mL | 35 | 46.48 ± 3.65 (≈ 86.1 µM) | 8 (≈ 14.8 µM) | 8 (≈ 14.8 µM) | 16 (≈ 29.6 µM) | –
CCCCCCCC(=O)N[C@@H](CCCNC(=N)N)C(=O)N[C@@H](CCCNC(=N)N)C(=O)NCCCC[C@H](NC(=O)[C@H](CCCNC(=N)N)NC(=O)[C@H](CCCNC(=N)N)NC(=O)CCCCCCC)C(N)=O [Compound B1] (Octanoyl-Arg-Arg-Lys([Arg-Arg-Octanoyl])-NH2) | – | – | 378.40 ± 93.71 (≈ 370 µM) | 8 (≈ 7.83 µM) | 64 (≈ 62.6 µM) | 64 (≈ 62.6 µM) | >256
CCCCCCCC(=O)N[C@@H](CCCC)C(=O)N[C@@H](CCCNC(=N)N)C(=O)N[C@@H](CCCNC(=N)N)C(=O)N[C@@H](CSSC[C@H](NC(=O)[C@H](CCCNC(=N)N)NC(=O)[C@H](CCCNC(=N)N)NC(=O)[C@H](CCCC)NC(=O)CCCCCCC)C(N)=O)C(N)=O [Compound C6] (I: Octanoyl-[Nle]RRC-NH2 / II: Octanoyl-[Nle]RRC-NH2; disulfide I:4-II:4) | 4.28 mM and 5737.7 μg/mL | 35 | 248.83 ± 18.81 (≈ 185 µM) | 2 (≈ 1.49 µM) | 16 (≈ 11.9 µM) | 16 (≈ 11.9 µM) | >256
CCCCCCCC(=O)N[C@@H](Cc1ccccc1)C(=O)N[C@@H](CCCNC(=N)N)C(=O)N[C@@H](CCCNC(=N)N)C(=O)NCCCC[C@H](NC(=O)[C@H](CCCNC(=N)N)NC(=O)[C@H](CCCNC(=N)N)NC(=O)[C@H](Cc1ccccc1)NC(=O)CCCCCCC)C(N)=O [Compound B5] (Octanoyl-FRRK([Arg-Arg-Phe-Octanoyl])-NH2) | 2.47 mM and 3247.9 μg/mL | 39 | 169.13 ± 32.80 (≈ 128 µM) | 4 (≈ 3.04 µM) | 16 (≈ 12.2 µM) | 16 (≈ 12.2 µM) | 181.38 ± 8.99
CCCCCCCCCCCC(=O)N[C@@H](CCCNC(=N)N)C(=O)N[C@@H](CCCNC(=N)N)C(N)=O [Compound A3, C12-RR-NH2] (Lauroyl-Arg-Arg-NH2) | 7.48 mM and 3827.3 μg/mL | 38 | 153.50 ± 8.13 (≈ 300 µM) | 32 (≈ 62.5 µM) | 64 (≈ 125 µM) | 128 (≈ 250 µM) | –
